# Results as given in ChEMBL document CHEMBL1127345, “Synthesis, binding properties, and 18F labeling of fluorocarazolol, a high-affinity beta-adrenergic receptor antagonist” (J Med Chem, 1994).
# Columns and labels:
# Assay type in all cases: physicochemical
# [1] = The octanol-water partition coefficient at pH 8.3
# [2] = The octanol-water partition coefficient at pH 10.0
# [3] = The octanol-water partition coefficient at pH 4.5
# [4] = The octanol-water partition coefficient at pH 6.4
# [5] = The octanol-water partition coefficient at pH 5.8
# [6] = The octanol-water partition coefficient at pH 7.0
# [7] = The octanol-water partition coefficient at pH 9.4
# [8] = The octanol-water partition coefficient at pH 3.3
# [9] = The octanol-water partition coefficient at pH 10.8
# [10] = The octanol-water partition coefficient at pH 7.5
Compound,logD [1],logD [2],logD [3],logD [4],logD [5],logD [6],logD [7],logD [8],logD [9],logD [10]
CC(C)NCC(O)COc1cccc2[nH]c3ccccc3c12 (stereo not given) [CARAZOLOL],2.13,2.5,0.3,0.68,0.42,1.07,2.44,0.17,2.43,1.51
CC(CF)NCC(O)COc1cccc2[nH]c3ccccc3c12 (stereo not given) [FLUOROCARAZOLOL],2.7,2.81,0.38,1.76,1.11,2.2,2.8,0.03,2.81,2.48
